Measurements reported in US8273738B2, “Imidazole derivatives” (priority 2006, dated 2012).
Like-named read-outs stand apart in the source and are kept apart here.

Assays:
[1] = test system: rats with chronic constriction nerve injury; assay: Analgesic effect in rats with chronic constriction nerve injury (von Frey filament); assay type: in vivo, rat; settings: oral, dose of 50 mg/kg or less, one hour after administration, von Frey filaments
Description: Rats with chronic constriction nerve injury were produced by partially modifying the method of Mosconi and Kruger et al. (Pain, vol. 64, pp. 37-57 (1996))
Male Crl:CD(SD) rats were used for the experiments. Under pentobarbital anesthesia, the sciatic nerve of the left hind limb of the rat was exfoliated, and the exfoliated region was wrapped with a polyethylene tube (trade name: Intramedic, size: PE-60, manufactured by Becton Dickinson and Company) of 2 mm in length. On days 14 to 21 after the surgery, the rats were placed in an acrylic connected cage with a wire mesh floor (900 mm (length)×210 mm (depth)×140 mm (height)) consisting of 4 cages connected in a row and allowed to acclimate to the environment for at least 20 minutes, and then, the pain was evaluated.
The von Frey filament (trade name: touch test sensory evaluator, Model number: model 58011, manufactured by Muromachi Kikai) was used to evaluate pain, and the results were calculated as a pain threshold. That is, by using a von Frey filament of different stimulus intensity, stimulation was given to the plantar surface of the injured side of rats with chronic constriction nerve injury, and the stimulus intensity to cause paw withdrawal response was obtained. Then, the 50% pain threshold (Paw withdrawal threshold) (g) was calculated by the up down method of Dixon [Annual Review of Pharmacology and Toxicology, vol. 20, pp. 441-462 (1980)].
In the evaluation of the test compound, rats with 50% pain threshold of less than 4 g were used, and the test compound was dissolved in a 0.5% aqueous methyl cellulose solution and orally administered at a dose of 5 mL/kg. One hour after the administration, the pain threshold was measured using von Frey filaments.

human CB2 receptor = molecular target: T1, human CB2 receptor (Homo sapiens, UniProt P34972); assay: GTPγS binding experiment via human CB2 receptor (membrane fraction of CHO-K1 cells); assay type: biochemical; settings: for Emax: read-out: Emax value (maximum effect of CP55940 as 100%)
T1 construct: expressed in transfected cells
T1 sequence (P34972 whole entry): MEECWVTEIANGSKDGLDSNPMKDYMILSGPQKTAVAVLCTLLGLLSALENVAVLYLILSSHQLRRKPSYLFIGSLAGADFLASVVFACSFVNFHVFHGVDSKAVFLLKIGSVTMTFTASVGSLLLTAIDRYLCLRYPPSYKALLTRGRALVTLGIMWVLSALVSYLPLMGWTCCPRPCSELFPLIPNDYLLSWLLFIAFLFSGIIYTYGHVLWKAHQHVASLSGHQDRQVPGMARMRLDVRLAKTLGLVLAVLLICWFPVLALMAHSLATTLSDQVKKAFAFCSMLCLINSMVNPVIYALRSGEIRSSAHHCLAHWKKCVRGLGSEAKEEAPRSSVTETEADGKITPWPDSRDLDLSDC
Method: A test was carried out according to the method of Hillard et al. [The Journal of Pharmacology and Experimental Therapeutics, vol. 289, p. 1427 (1999)]. As for a membrane specimen, a membrane fraction was prepared from CHO-K1 cells in which a human CB2 receptor [Nature, vol. 365, pp. 61-65 (1993)] was stably expressed and used. The membrane specimen (final concentration: 40 μg of protein/mL) was incubated together with a test compound and [^35S]GTPγS (manufactured by PerkinElmer) (final concentration: 0.05 nmol/L) in an assay buffer (50 mmol/L Tris-HCl buffer (pH 7.4), 100 mmol/L NaCl, 1 mmol/L EDTA, 3 mmol/L MgCl2, and 0.1% bovine serum albumin) containing 20 μmol/L guanosine 5′-diphosphate (GDP) at 30° C. for 1 hour, and the resulting mixture was filtered using a glass filter GF/B (manufactured by Whatman). After the glass filter was washed with the assay buffer, the radioactivity on the glass filter was measured using a liquid scintillation counter (TRI-CARB 2700TR, manufactured by Packard). The binding amount in the presence of 10 μmol/L GTPγS was considered to be a non-specific binding amount, and a difference between the total binding amount and the non-specific binding amount was considered to be a specific binding amount. The ratio of increase in the specific binding amount in the presence of the test compound to the specific binding amount in the absence of the test compound was considered to be an agonistic activity of the test compound. The concentration of the test compound that produces 50% of the maximum effect (EC50 value) was calculated by performing a nonlinear regression analysis using the concentration-response data. The percentage of the maximum effect of the test compound (Emax value) was calculated by considering the maximum effect of CP55940 (manufactured by Tocris) measured at the same time as 100%.

CB2 receptor = molecular target: T2, CB2 receptor (Rattus norvegicus, UniProt Q9QZN9); assay: Cannabinoid CB2 receptor-binding activity ([3H]CP55940 binding experiment), rat spleen membrane specimen
T2 construct: from tissue; host or cells: rat spleen membrane specimen
T2 sequence (Q9QZN9 1-360): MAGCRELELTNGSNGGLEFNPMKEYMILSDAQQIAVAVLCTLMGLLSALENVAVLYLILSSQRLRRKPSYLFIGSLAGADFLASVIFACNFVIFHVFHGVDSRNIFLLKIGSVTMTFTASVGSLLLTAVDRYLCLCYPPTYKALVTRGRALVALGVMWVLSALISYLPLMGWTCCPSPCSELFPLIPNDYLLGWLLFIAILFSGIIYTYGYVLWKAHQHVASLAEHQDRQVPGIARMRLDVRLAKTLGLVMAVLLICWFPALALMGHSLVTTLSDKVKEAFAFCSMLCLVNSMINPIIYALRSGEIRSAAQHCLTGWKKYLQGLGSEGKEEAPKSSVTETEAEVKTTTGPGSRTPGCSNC
Method: A test was carried out according to the method of Hillard et al. [The Journal of Pharmacology and Experimental Therapeutics, vol. 289, p. 1427 (1999)]. A rat forebrain membrane specimen and a rat spleen membrane specimen were prepared and used in a binding experiment for a CB1 receptor and a binding experiment for a CB2 receptor, respectively. The membrane specimen (forebrain: final concentration of 0.5 mg of protein/mL, spleen: final concentration of 2 mg of protein/mL) was incubated together with a test compound and [^3H]CP55940 (manufactured by PerkinElmer) ((−)-cis-3-[2-hydroxy-[3,5-^3H]-4-(1,1-dimethylheptyl)phenyl]-trans-4-(3-hydroxypropyl)cyclohexanol)) (final concentration: 0.5 nmol/L) in an assay buffer (50 mmol/L Tris-HCl buffer (pH 7.4), 1 mmol/L EDTA and 3 mmol/L MgCl2) containing 0.1% bovine serum albumin at 25° C. for 1 hour, and the resulting mixture was filtered using a glass filter GF/C (manufactured by Whatman) treated with 1% polyethyleneimine. After the glass filter was washed with the assay buffer containing 0.2% bovine serum albumin, the radioactivity on the glass filter was measured using a liquid scintillation counter (TRI-CARB 2700TR, manufactured by Packard). The binding amount in the presence of 10 μmol/L […] (manufactured by Tocris) ((R)-(+)-[2,3-dihydro-5-methyl-3-(4-morpholinylmethyl)pyrrolo[1,2,3-de]-1,4-benzoxazin-6-yl]-1-naphthalenylmethanone) was considered to be a non-specific binding amount, and a difference between the total binding amount and the non-specific binding amount was considered to be a specific binding amount. The 50% inhibitory concentration (IC50 value) of the test compound against the specific binding was obtained, and the Ki value of the test substance was calculated from the 50% inhibitory concentration and the Kd value of the [^3H]CP55940 binding.

Structure (SMILES) | 50% pain threshold (paw withdrawal threshold) [1] | EC50 (human CB2 receptor) | Emax (human CB2 receptor) | Ki (CB2 receptor) | Ki (CB2 receptor; rat spleen membrane, [3H]CP55940 0.5 nmol/L, 25° C., 1 hour, read-out: Ki value against the CB2 receptor)
CCN(CC)C(=O)c1cc(-c2cn(CC3CCOCC3)c(C(C)(C)C)n2)ccc1Cl [Compound 65, 2-Chloro-5-(2-tert-butyl-1-(tetrahydropyran-4-ylmethyl)-1H-imidazol-4-yl)-N,N-diethylbenzamide] | significantly increased the pain threshold | < 1 µM | > 30% | < 1 µM | 
CCN(CC)C(=O)c1cc(-c2cn(CC3CCOCC3)c(C(C)(C)C)n2)ccc1F.Cl [Compound 66, 5-(2-tert-Butyl-1-(tetrahydropyran-4-ylmethyl)-1H-imidazol-4-yl)-N,N-diethyl-2-fluorobenzamide hydrochloride] | significantly increased the pain threshold | < 1 µM | > 30% | < 1 µM | 
CC(C)(C)c1nc(-c2cccc([N+](=O)[O-])c2)cn1CC1CCOCC1 [Compound 70, 2-tert-Butyl-4-(3-nitrophenyl)-1-(tetrahydropyran-4-ylmethyl)-1H-imidazole] | significantly increased the pain threshold | < 1 µM | > 30% | < 1 µM | 
CCN(CC)C(=O)c1cccc(-c2cn(CC3CCOCC3)c(C(C)(C)C)n2)c1.Cl [Compound 76, 3-(2-tert-Butyl-1-(tetrahydropyran-4-ylmethyl)-1H-imidazol-4-yl)-N,N-diethylbenzamide hydrochloride] | significantly increased the pain threshold | < 1 µM | > 30% | < 1 µM | 
CCN(C)C(=O)c1cccc(-c2cn(CC3CCOCC3)c(C(C)(C)C)n2)c1.Cl [Compound 83, 3-(2-tert-Butyl-1-(tetrahydropyran-4-ylmethyl)-1H-imidazol-4-yl)-N-ethyl-N-methylbenzamide hydrochloride] | significantly increased the pain threshold | < 1 µM | > 30% | < 1 µM | 
CCN(CC)C(=O)c1cncc(-c2cn(CC3CCOCC3)c(C(C)(C)C)n2)c1 [Compound 85, 5-(2-tert-Butyl-1-(tetrahydropyran-4-ylmethyl)-1H-imidazol-4-yl)-N,N-diethylnicotinamide] | significantly increased the pain threshold | < 1 µM | > 30% | < 1 µM | 
CCN(C)C(=O)c1cc(-c2cn(CC3CCOCC3)c(C(C)(C)C)n2)cs1 [Compound 102, 4-[2-tert-Butyl-1-(tetrahydropyran-4-ylmethyl)-1H-imidazol-4-yl]-N-ethyl-N-methylthiophene-2-carboxamide] | significantly increased the pain threshold | < 1 µM | > 30% | < 1 µM | 
CCN(CC)C(=O)c1cncc(-c2cn(CC3CCOCC3)c(C(C)(C)C)n2)n1 [Compound 143, 6-[2-tert-Butyl-1-(tetrahydropyran-4-ylmethyl)-1H-imidazol-4-yl]-N,N-diethylpyrazine-2-carboxamide] | significantly increased the pain threshold | < 1 µM | > 30% |  | < 1 µM
CCCN(C)C(=O)c1cncc(-c2cn(CC3CCOCC3)c(C(C)(C)C)n2)n1 [Compound 144, 6-[2-tert-Butyl-1-(tetrahydropyran-4-ylmethyl)-1H-imidazol-4-yl]-N-methyl-N-propylpyrazine-2-carboxamide] | significantly increased the pain threshold | < 1 µM | > 30% | < 1 µM | 
CCN(C)C(=O)c1cncc(-c2cn(CC3CCOCC3)c(C(C)(C)C)n2)n1 [Compound 146, 6-[2-tert-Butyl-1-(tetrahydropyran-4-ylmethyl)-1H-imidazol-4-yl]-N-ethyl-N-methylpyrazine-2-carboxamide] | significantly increased the pain threshold | < 1 µM | > 30% | < 1 µM | 
CN(C)C(=O)c1cncc(-c2cn(CC3CCOCC3)c(C(C)(C)C)n2)n1 [Compound 153, 6-[2-tert-Butyl-1-(tetrahydropyran-4-ylmethyl)-1H-imidazol-4-yl]-N,N-dimethylpyrazine-2-carboxamide] | significantly increased the pain threshold | < 1 µM | > 30% | < 1 µM | 
CCN(C)C(=O)c1cncc(-c2cn(CC3(F)CCOCC3)c(C(C)(C)C)n2)n1 [Compound 185, 6-[2-tert-Butyl-1-(4-fluorotetrahydropyran-4-ylmethyl)-1H-imidazol-4-yl]-N-ethyl-N-methylpyrazine-2-carboxamide] | significantly increased the pain threshold | < 1 µM | > 30% | < 1 µM | 
CN(C)C(=O)c1cncc(-c2cn(CC3(F)CCOCC3)c(C(C)(C)C)n2)n1 [Compound 186, 6-[2-tert-Butyl-1-(4-fluorotetrahydropyran-4-ylmethyl)-1H-imidazol-4-yl]-N,N-dimethylpyrazine-2-carboxamide] | significantly increased the pain threshold | < 1 µM | > 30% | < 1 µM | 
CN(CC(F)(F)F)C(=O)c1cc(-c2cn(CC3CCOCC3)c(C(C)(C)C)n2)on1 [Compound 204, 5-[2-tert-Butyl-1-(tetrahydropyran-4-ylmethyl)-1H-imidazol-4-yl]-N-methyl-N-(2,2,2-trifluoroethyl)isoxazole-3-carboxamide] | significantly increased the pain threshold | < 1 µM | > 30% | < 1 µM | 
